The values below come from patent US20260183277A1, “ANTIVIRAL PHARMACEUTICAL COMPOSITION COMPRISING ERRy INHIBITOR AS ACTIVE INGREDIENT” (priority 2024, published 2026).

The assay has as its system SARS-CoV-2 KCDC03. The class given is cell-based.

With `CC(C)N1CCN(c2ccc(/C(=C(/CCCO)c3ccccc3)c3ccc(O)cc3)cc2)CC1` [DN200434], the “genome replication, progeny production, and protein synthesis of SARS-CoV-2” value is given as “effectively suppressed”.
